One data set relates to L-1210 leukemia. The settings on record: i.p. inoculation, i.p. administration; cited from earlier work.
The subject of a further data set is P-388 leukemia cells. As to the kind of experiment: Antitumor activity: P-388 leukemia cells inoculated intraperitoneally, drug administered intravenously, BDF1 mice. Format: in vivo. The settings on record: for response vs control in vivo at 80 mg/kg: dose f: 80 mg/kg × 3, i.v. on days 1, 5 and 9. In outline: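 Drug dosing was intravenous on the first, fifth and ninth days after intraperitoneal inoculation of P-388 leukemia cells (1×10^6 per mouse) into BDF1 mice. Vehicles were physiological saline alone, or saline with small amounts of sodium carboxymethyl cellulose or Tween-80.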

The test system of a further data set is P-388 leukemia. The settings on record: i.p. inoculation, i.p. administration; cited from earlier work.
For another data set, the system named is cancer. The settings on record: different sites; cited from earlier work.
The subject of another data set is B-16 melanoma. Particulars: i.p. inoculation, i.p. administration; cited from earlier work.
For another data set, the system named is ddY mice. Description: Acute toxicity, intravenous (once), ddY mice. Particulars: formulated per Preparation Example. Format: in vivo. From the text:
In Table 7 are shown acute toxicity values (LD50, mg/kg) in ddY mice in the case of intravenously administering (once) each of the compounds of this invention in the form of preparations shown in the Preparation Examples shown in Table 7.

The mark [1] stands for this setting: Mus musculus, P388, iv, BDF1 mice, P-388 i.p., read-out: T/C (%) of MST.

The text below walks through data of patent US4760136A, “Chartreusin derivatives and salts thereof” (Ishihara Sangyo Kaisha, Ltd., priority 1984, dated 1988).

Molecules are shown by their SMILES.

Take `CO[C@H]1[C@@H](O)[C@@H](C)O[C@H](O[C@H]2[C@H](Oc3cccc4c(O)c5c(=O)oc6ccc(C)c7c(=O)oc(c34)c5c67)O[C@H](C)[C@H](O)[C@@H]2O)[C@@H]1O` [chartreusin]: in the data set on L-1210 leukemia, the “antitumorous activity against L-1210 leukemia” value is reported as “effective”. For the same compound, in the data set with P-388 leukemia cells (50 mg/kg/day x 3, suspension in 0.2M Na2HPO4 / N,N-dimethylacetamide (4:1), comparison), the “T/C (%)” value amounted to 105%. Further, in the data set on P-388 leukemia, the “antitumorous activity against P-388 leukemia” value is reported as “effective”. Also, the “antitumorous activity when site of cancer inoculation and site of administration were different” value with cancer was “not effective at all”. In addition, the “antitumorous activity against B-16 melanoma” value in the data set on B-16 melanoma is reported as “effective”.

For `COC1C(O)C(C)OC(OC2C(Oc3cccc4c(OC(=O)CCCCCNC(=O)OCc5ccccc5)c5c(=O)oc6ccc(C)c7c(=O)oc(c34)c5c67)OC(C)C3OC(c4ccccc4)OC32)C1O` (centres unmarked) [compound 110], in the data set on ddY mice, the LD50 was ≥ 60 mg/kg. Besides, the response vs control in vivo at 40 mg/kg with P-388 leukemia cells (Mus musculus, P388, iv, dose c: 40 mg/kg × 3, i.v. on days 1, 5 and 9, BDF1 mice, P-388 i.p., read-out: T/C (%) of MST) was determined as 154%.

For the compound `COC1C(O)C(C)OC(OC2C(Oc3cccc4c(OC(=O)CCNC(=O)c5ccccc5)c5c(=O)oc6ccc(C)c7c(=O)oc(c34)c5c67)OC(C)C3OC(c4ccc(Br)cc4)OC32)C1O` (centres unmarked) [compound 124], in the data set on ddY mice, the LD50 is listed as ≥ 80 mg/kg. Also, the response vs control in vivo at 80 mg/kg in the data set on P-388 leukemia cells (setting [1]) was 151%.

As to `CCCC(=O)Oc1c2cccc(OC3OC(C)C4OC(c5ccccc5)OC4C3OC3OC(C)C(O)C(OC)C3O)c2c2oc(=O)c3c(C)ccc4oc(=O)c1c2c43` (centres unmarked) [compound 212, 6-O-(n-butyryl)-3',4'-O-benzylidene-chartreusin], the LD50 in the data set with ddY mice is ≥ 80 mg/kg. Also, the response vs control in vivo at 80 mg/kg in the data set on P-388 leukemia cells (setting [1]) came to 153%.

As to `C=CCCC(=O)Oc1c2cccc(O[C@@H]3O[C@H](C)[C@@H]4OC(c5ccccc5)O[C@@H]4[C@H]3O[C@H]3O[C@H](C)[C@H](O)[C@H](OC)[C@H]3O)c2c2oc(=O)c3c(C)ccc4oc(=O)c1c2c43` (some centres unmarked) [compound 213], the LD50 in the data set with ddY mice was ≥ 80 mg/kg. Moreover, the response vs control in vivo at 80 mg/kg with P-388 leukemia cells (setting [1]) worked out at 160%.

Turning to `COC1C(O)C(C)OC(OC2C(Oc3cccc4c(OC(=O)CC(C)C)c5c(=O)oc6ccc(C)c7c(=O)oc(c34)c5c67)OC(C)C3OC(c4ccccc4)OC32)C1O` (centres unmarked) [compound 227], in the data set on ddY mice, the LD50 is ≥ 80 mg/kg. Moreover, in the data set on P-388 leukemia cells (setting [1]), the response vs control in vivo at 80 mg/kg was 143%.

For the compound `COC1C(O)C(C)OC(OC2C(Oc3cccc4c(OC(=O)C5CC5)c5c(=O)oc6ccc(C)c7c(=O)oc(c34)c5c67)OC(C)C3OC(c4ccccc4)OC32)C1O` (centres unmarked) [compound 230], in the data set on ddY mice, the LD50 was ≥ 80 mg/kg. Moreover, the response vs control in vivo at 80 mg/kg in the data set with P-388 leukemia cells (setting [1]) was found to be 144%.
